# In patent US11793797B2, “Uses of a lysyl oxidase-like 2 inhibitor” (PHARMAKEA, INC., priority 2016, dated 2023):
# Read-outs that look alike come from different tables or passages of the source.
# Key:
# human LOXL2 = human LOXL2 (Homo sapiens (Human), UniProt Q9Y4K0); assay: Human LOXL2 CCM assay (Amplex Red amine oxidase activity); format: biochemical
# Protocol: Human LOXL2/CHO and human LOX/HEK stable cell lines were cultured under normal growth conditions in 15 cm tissue culture plates until cells were ˜80% confluent. Cells were then washed with PBS before the addition of 25-30 mL serum-free media (Phenol red-free DMEM/F12 mix w/glutamax containing pen/strep, 10-100 μM CuCl2±0.1% BSA). Cells were incubated at 37° C., 5% CO2 in serum-free media for 40-48 hours before the conditioned media was removed and centrifuged at 2000 rpm for 5 min at 4° C. to pellet cells/debris. The media was concentrated 10-20× using 10-30 MWCO centriprep columns according to the manufacturer's instructions (EMD Millipore, Billerica, Mass.) before aliquoting and storing at −80° C.
# LOXL2 amine oxidase activity was evaluated by measuring Amplex Red fluorescence using 10-20× concentrated conditioned media (non BSA-containing) from CHO cells stably expressing human LOXL2. To assay for amine oxidase activity, 10 μL of the concentrated conditioned media was incubated with 2 μL of test compound in DMSO and 73 μL Assay Buffer (50 mM Borate Buffer, pH8) for 2 h at 37° C. After the 2 h incubation, 5 μL of 10 mM 1,5-Diaminopentane (DAP) diluted in Assay Buffer and 10 μL of Amplex Red Mix (8.5 μL Assay Buffer+0.5 μL of 10 mM Amplex Red+1 μL of 500 U/ml Horseradish Peroxidase) were added and the plate mixed and immediately placed on the FlexStation for fluorescence measurements. Fluorescence was read in kinetic mode every 2 min for 0.5-1 hour at excitation=544 and emission=590. The amine oxidase activity was calculated from the slope of the linear portion of the curve. Wells containing vehicle (DMSO) represented maximum activity and were set to 0% inhibition and wells containing 100 μM βAPN (3-aminopropionitrile) represented no activity and were set to 100% inhibition.
# [1] = system: collagen induced arthritis (CIA); conditions: in vivo CIA mouse model; cited from earlier work
# in vivo = conditions: dog
# Protocol: (§1) Blood samples were taken from each dog (approximately 1 mL total blood per time point) at pre-dose, 5 or 15 min and then at various time points up to 24 hours post-dose. Samples were collected on wet ice in tubes containing potassium EDTA (w/v in normal saline; BD Biosciences, Franklin Lakes, N.J. Plasma samples, prepared by centrifugation of whole blood, were stored frozen (−80° C.) prior to analysis. All other reagents were of analytical grade.
# (§2) Analysis was performed on an LC-MS/MS systems comprised of a Sciex API-4000Qt tandem mass spectrometer (AB Sciex, Foster City, Calif.) interfaced to an HPLC system consisting of a single Agilent 1200 Series Quaternary system pump (Santa Clara, Calif.) and a LEAP PAL auto-injector (Greenville, S.C.). Analyses were performed using an Agilent Zorbax SB-C8 column (2.1×50 mm; 5 μm) for chromatographic separations at room temperature.
# MDA-MB-435-GFP cells = assay: Mouse orthotopic breast cancer model; format: in vivo; conditions: oral 60 mg/kg/day, at 4 weeks, nude mice
# Protocol: Tumor stocks were made by subcutaneously (s.c.) injecting MDA-MB-435-GFP cells at a concentration of 5×10^6 cells/100 μL into the flank of nude mice. When the s.c. tumors reach 50-100 mm^3, tumors were harvested and cut into 1 mm^3 fragments. Two tumor fragments were transplanted into the mammary fat pad of each mouse. […] Docetaxel was administered at 10 mg/kg intravenously once a week for 4 weeks as a positive control. Tumor size was calculated from a measurement of perpendicular minor dimension (W) and major dimension (L) using the formula (W2×L)×½ with W and L measured using a digital caliper. Mice were sacrificed after 4 weeks.
# [2] = Pharmacokinetic study of Compound 1 or 2 in rat; format: in vivo; conditions: male
# Protocol: as §1, with “each rat” for “each dog”, “(approximately 0.3” for “(approximately 1”
# as §2
# [3] = system: bleomycin-induced lung fibrosis; assay: Mouse oropharyngeal bleomycin model of lung fibrosis; format: in vivo
# Protocol: Lung fibrosis was induced in C57Bl/6 male mice by administering bleomycin (0.1-4 U/kg) via oropharyngeal instillation. Mice were either pretreated with vehicle or test compound orally, intraperitoneally, intravenously or subcutaneously either prophylactically (1 day to 1 hour before bleomycin instillation) or therapeutically (7-14 days post bleomycin instillation). The route and frequency of dosing were based on previously determined pharmacokinetic properties for the LOXL2 inhibitor in mouse. After bleomycin instillation, animals were monitored daily for weight loss and clinical signs for 14-28 days prior to sacrifice. Animals were euthanized at study termination and weighed. […] For histological examination, lung slices were stained with Masson's trichrome or picrosirius red to measure fibrillar collagen as an indicator of fibrosis and an Ashcroft score of lung fibrosis and inflammatory damage determined. […] After the acid hydrolysis, 25-100 μL of the supernatant is dried down, resuspended in 25 μL water and the hydroxyproline content determined by the addition of 0.5 mL Chloramine T solution (140 mg Chloramine T in 6.5 ml ddH2O+1 ml n-propanol+2.5 mL 1M sodium acetate) and incubation at room temperature for 20 min. […]
# Fibrotic status was assessed histologically on Day 21 using Ashcroft score as a primary measure of lung fibrosis. […]
# [4] = system: liver fibrosis in BALB/c.Mdr2-/- mice; assay: Mouse Mdr2 knockout model of biliary fibrosis; format: in vivo; conditions: a model of liver fibrosis
# Protocol: Liver disease develops in the BALB/c.Mdr2−/− mouse model with bridging fibrosis/early cirrhosis between 8 and 12 weeks of age (Ikenaga et al. 2015 Am J Pathology, 185: 325-334). […] At the end of the study, mice were anesthetized with isoflurane (1.5% v/v) via precise vaporizer. After laparotomy, portal pressure was measured directly by inserting a high-fidelity pressure catheter into the portal vein and measuring pressure signals for 5 minutes. Serum was collected for analysis of liver (ALT, AST, ALP, and bilirubin) and kidney (creatinine) biochemistries. Part of the liver was fixed in 10% neutral buffered formalin for histopathological analysis of inflammation, necrosis and fibrosis by H&E staining and picrosirius red staining. Collagen area fraction was measured from picrosirius red stained images using an algorithm that separates the red stained collagen from non-specific staining through color subtraction and thresholding of the processed image. Sections were analyzed in random order using the same threshold value for each set. Data were deconvolved after analysis to identify group assignment. Collagen content was determined from a portion of the liver tissue using hydroxyproline analysis.
# [5] = PO, 0.5% MC, 30 mg/kg, fasted, AUC0-t PO/AUC0-t IV
# [6] = plasma, iv, 2 mg/kg, saline, fed
# Chain of human LOXL2 (Q9Y4K0 26-774): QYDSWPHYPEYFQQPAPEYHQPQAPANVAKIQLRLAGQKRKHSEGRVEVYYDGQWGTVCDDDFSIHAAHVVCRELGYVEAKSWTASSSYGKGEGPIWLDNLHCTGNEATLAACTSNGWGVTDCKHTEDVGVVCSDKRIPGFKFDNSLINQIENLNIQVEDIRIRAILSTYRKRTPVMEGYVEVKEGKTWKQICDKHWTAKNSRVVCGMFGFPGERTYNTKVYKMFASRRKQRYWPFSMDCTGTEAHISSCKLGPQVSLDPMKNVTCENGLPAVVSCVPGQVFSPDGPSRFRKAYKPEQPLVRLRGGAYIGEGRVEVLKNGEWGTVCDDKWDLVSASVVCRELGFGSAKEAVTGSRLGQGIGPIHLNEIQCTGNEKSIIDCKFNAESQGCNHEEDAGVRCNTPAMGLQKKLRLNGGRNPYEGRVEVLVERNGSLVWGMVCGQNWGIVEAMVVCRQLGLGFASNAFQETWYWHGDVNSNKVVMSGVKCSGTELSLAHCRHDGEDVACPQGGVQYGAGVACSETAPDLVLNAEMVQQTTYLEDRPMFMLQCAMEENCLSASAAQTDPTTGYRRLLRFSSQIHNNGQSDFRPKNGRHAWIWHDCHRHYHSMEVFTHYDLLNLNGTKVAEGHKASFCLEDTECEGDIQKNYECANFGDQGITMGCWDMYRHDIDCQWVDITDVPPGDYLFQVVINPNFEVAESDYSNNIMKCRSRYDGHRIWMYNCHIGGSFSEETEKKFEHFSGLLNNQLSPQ
smiles,measurement,setting,value
"NCc1cc(Oc2cccc(C(=O)N3C[C@H](O)[C@@H](F)C3)c2)nc(C(F)(F)F)c1 (single isomer, unassigned) [Compound Ent-1]",IC50,"human LOXL2; human LOXL2 CCM (non BSA-containing), 2 h preincubation at 37° C., read-out: IC50",< 300 nM
"N#CCCN [BAPN, β-aminopropionitrile]",effect on collagen induced arthritis,[1],ameliorated collagen induced arthritis (CIA)
"NCc1cc(Oc2cccc(C(=O)N3C[C@@H](O)[C@H](F)C3)c2)nc(C(F)(F)F)c1 [Compound 1, (R,R)-trans-(3-((4-(aminomethyl)-6-(trifluoromethyl)pyridin-2-yl)oxy)phenyl)(3-fluoro-4-hydroxypyrrolidin-1-yl)methanone]",emesis (clinical observations),in vivo; po,Emesis was prevalent in all dose groups
same,AUC0-t hr/Dose,"in vivo; po, 100 mg/kg",0.85
same,bioavailability,"in vivo; male, beagle, 100 mg/kg, F(%)",283%
same,Tmax,"in vivo; male, beagle, po, 100 mg/kg",78 min
same,AUC(0-t),"in vivo; male, beagle, po, 100 mg/kg, AUC(0-t hr)",85000 ng·h/mL
same,Cmax,"in vivo; male, beagle, po, 100 mg/kg",27000 ng/mL
same,reduction in tumor volume,MDA-MB-435-GFP cells,35%
same,AUC0-t hr/Dose,"[2]; IV, saline, 2 mg/kg, fed",0.07
same,AUC0-t hr/Dose,"[2]; PO, 0.5% MC, 30 mg/kg, fasted",0.05
same,F(%),[2]; [5],71%
same,AUC0-t hr/Dose,"[2]; PO, capsule, 15 mg/kg, fasted",0.05
same,Cmax,"[2]; plasma, iv, 2 mg/kg, IV, saline, 2 mg/kg, fed, read-out: Cmax",630 ng/mL
same,Tmax,"[2]; plasma, iv, 2 mg/kg, IV, saline, 2 mg/kg, fed, read-out: Tmax",4.98 min
same,AUC(0-t),[2]; [6],140 ng·h/mL
same,bioavailability,[2]; [6],100%
same,bioavailability,"[2]; plasma, oral, 15 mg/kg, capsule, fasted, AUC0-t PO/AUC0-t IV",69%
same,Cmax,"[2]; plasma, po, 15 mg/kg, PO, capsule, 15 mg/kg, fasted, read-out: Cmax",1200 ng/mL
same,Tmax,"[2]; plasma, po, 15 mg/kg, PO, capsule, 15 mg/kg, fasted, read-out: Tmax",36 min
same,AUC(0-t),"[2]; plasma, po, 15 mg/kg, capsule, fasted",740 ng·h/mL
same,AUC(0-t),"[2]; plasma, po, 30 mg/kg, 0.5% MC, fasted",1400 ng·h/mL
same,Cmax,"[2]; plasma, po, 30 mg/kg, PO, 0.5% MC, 30 mg/kg, fasted, read-out: Cmax",1700 ng/mL
same,Tmax,"[2]; plasma, po, 30 mg/kg, PO, 0.5% MC, 30 mg/kg, fasted, read-out: Tmax",15 min
same,"Ashcroft score, mean value after treatment","[3]; prophylactic, oral 60 mg/kg/day from Day -1, Day 14, reduced from mean 3.1",0.8
same,normalization of Ashcroft score,"[3]; recovery study, oral 60 mg/kg starting Day 14 after bleomycin, lungs harvested Day 28",73%
same,IC50,"human LOXL2; CCM containing BSA, read-out: IC50, LOXL2 (CCM containing BSA)",116 nM
"NCc1cc(Oc2cccc(C(=O)N3C[C@@H](O)[C@H](F)C3)c2)nc(C(F)(F)F)c1 [Compound 2, (R,R)-trans-(3-((4-(aminomethyl)-6-(trifluoromethyl)pyridin-2-yl)oxy)phenyl)(3-fluoro-4-hydroxypyrrolidin-1-yl)methanone]",emesis (clinical observations),in vivo; po,Emesis was prevalent in all dose groups
same,tolerability by dosing form (clinical observations),in vivo; po,oral capsule and potentially the tablet were better tolerated
same,Cmax,"in vivo; male, beagle, po, 300 mg/kg",143000 ng/mL
same,Tmax,"in vivo; male, beagle, po, 300 mg/kg, Tmax",18 min
same,AUC0-t hr/Dose,"[2]; PO, 0.5% MC, 30 mg/kg, fasted",0.07
same,AUC(0-t hr),"[2]; PO, 0.5% MC, 30 mg/kg, fasted",2000 ng·h/mL
same,Cmax,"[2]; PO, 0.5% MC, 30 mg/kg, fasted",2600 ng/mL
same,Tmax,"[2]; PO, 0.5% MC, 30 mg/kg, fasted",25.2 min
same,F(%),[2]; [5],95%
"NCc1cc(Oc2cccc(C(=O)N3C[C@@H](O)[C@H](F)C3)c2)nc(C(F)(F)F)c1 [Compound I, (R,R)-trans-(3-((4-(aminomethyl)-6-(trifluoromethyl)pyridin-2-yl)oxy)phenyl)(3-fluoro-4-hydroxypyrrolidin-1-yl)methanone]",fibrosis as area fraction of Picrosirius red (collagen) positive staining,[4],significantly reduced fibrosis
same,"potency relative to the (S,S)-isomer",human LOXL2; in vitro assays,less than 2 fold
